From ChEMBL document CHEMBL3638701, “Inhibitors of protein kinases” (2015)
pIC50: −log10 of the molar value.

What was measured:
[1] = molecular target: Cyclin-dependent kinase 1 (Homo sapiens, UniProt P06493); assay: (§1) In Vitro Kinase Inhibition Assay: In vitro kinase assay analysis may be performed using standard techniques described in the art. These techniques are also used by commercial services providers in order to offer in vitro kinase activity assay services, e.g. the assays offered by Millipore Inc. (worldwide website www(dot)millipore.com), ProQinase GmbH (worldwide website www(dot)proqinase.de) and others. All kinase assays were performed in 96-well FlashPlates from Perkin Elmer/NEN (Boston, Mass., USA) in a 50ul reaction volume. The reaction mixture was pipetted in four steps in the following order: 20ul of assay buffer (standard buffer),5ul of ATP solution (in H2O, 5 ul of test compound (in 10% DMSO), 10ul of substrate/10ul of enzyme solution (premixed)The assay for all enzymes contained 60 mM HEPES-NaOH (pH 7.5), 3 mM MgCl2, 3 mM MnCl2, 3uM Na-Orthovanadate, 1.2 mM DTT, 50 ug/ml PEG2000, 1 uM [33P]-ATP (approx. 5x1005 cpm per well).
[2] = molecular target: Cyclin-dependent kinase 2 (Homo sapiens, UniProt P24941); assay: as §1
[3] = molecular target: Cyclin-dependent kinase 3 (Homo sapiens, UniProt Q00526); assay: as §1
[4] = molecular target: Cyclin-dependent kinase 5 (Homo sapiens, UniProt Q00535); assay: as §1
[5] = molecular target: Cyclin-dependent kinase 6 (Homo sapiens, UniProt Q00534); assay: as §1
[6] = molecular target: Cyclin-dependent kinase 7 (Homo sapiens, UniProt P50613); assay: as §1
[7] = molecular target: Cyclin-dependent kinase 9 (Homo sapiens, UniProt P50750); assay: as §1
[8] = molecular target: Glycogen synthase kinase-3 alpha (Homo sapiens, UniProt P49840); assay: as §1
[9] = molecular target: Glycogen synthase kinase-3 beta (Homo sapiens, UniProt P49841); assay: as §1
[10] = molecular target: Interleukin-1 receptor-associated kinase 1 (Homo sapiens, UniProt P51617); assay: as §1
Interleukin-1 receptor-associated kinase 1, sequence (P51617 whole entry): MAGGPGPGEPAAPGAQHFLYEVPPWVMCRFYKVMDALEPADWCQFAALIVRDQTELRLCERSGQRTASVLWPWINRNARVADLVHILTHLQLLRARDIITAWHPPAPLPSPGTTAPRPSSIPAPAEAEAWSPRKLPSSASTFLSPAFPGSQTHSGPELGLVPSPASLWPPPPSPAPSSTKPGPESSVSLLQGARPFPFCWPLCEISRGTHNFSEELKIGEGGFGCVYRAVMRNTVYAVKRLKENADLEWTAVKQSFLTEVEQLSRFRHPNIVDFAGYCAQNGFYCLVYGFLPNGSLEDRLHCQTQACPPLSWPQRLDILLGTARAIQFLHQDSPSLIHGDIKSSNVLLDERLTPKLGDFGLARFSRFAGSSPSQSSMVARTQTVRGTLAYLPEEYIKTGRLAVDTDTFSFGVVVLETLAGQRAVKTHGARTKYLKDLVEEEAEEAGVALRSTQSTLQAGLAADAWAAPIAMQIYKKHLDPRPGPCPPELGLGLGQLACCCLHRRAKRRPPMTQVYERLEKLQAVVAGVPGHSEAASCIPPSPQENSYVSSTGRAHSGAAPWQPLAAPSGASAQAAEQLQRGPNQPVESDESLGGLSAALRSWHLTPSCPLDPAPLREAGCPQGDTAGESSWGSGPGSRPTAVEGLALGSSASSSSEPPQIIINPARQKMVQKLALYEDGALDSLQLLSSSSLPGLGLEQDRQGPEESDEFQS

Cyclin-dependent kinase 6, sequence (Q00534 whole entry): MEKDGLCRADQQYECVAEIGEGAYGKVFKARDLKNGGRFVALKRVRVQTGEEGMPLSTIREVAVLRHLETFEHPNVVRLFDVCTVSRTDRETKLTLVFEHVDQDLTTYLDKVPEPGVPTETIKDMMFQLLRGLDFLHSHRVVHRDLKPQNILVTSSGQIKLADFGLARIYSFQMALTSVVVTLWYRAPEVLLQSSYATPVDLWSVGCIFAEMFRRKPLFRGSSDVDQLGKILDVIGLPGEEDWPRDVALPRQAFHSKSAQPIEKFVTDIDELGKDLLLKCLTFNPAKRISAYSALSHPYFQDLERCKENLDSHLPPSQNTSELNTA
Cyclin-dependent kinase 9, sequence (P50750 whole entry): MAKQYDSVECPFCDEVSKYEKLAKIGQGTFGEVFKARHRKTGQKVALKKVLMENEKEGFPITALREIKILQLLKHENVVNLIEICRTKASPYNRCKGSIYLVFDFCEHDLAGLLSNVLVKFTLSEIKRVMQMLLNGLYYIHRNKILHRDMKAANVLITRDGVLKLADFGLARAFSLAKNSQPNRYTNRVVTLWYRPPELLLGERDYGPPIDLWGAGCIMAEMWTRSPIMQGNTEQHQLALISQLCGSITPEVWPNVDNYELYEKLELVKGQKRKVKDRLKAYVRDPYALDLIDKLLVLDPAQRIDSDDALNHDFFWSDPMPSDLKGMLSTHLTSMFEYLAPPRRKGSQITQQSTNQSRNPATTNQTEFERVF
Cyclin-dependent kinase 7, sequence (P50613 whole entry): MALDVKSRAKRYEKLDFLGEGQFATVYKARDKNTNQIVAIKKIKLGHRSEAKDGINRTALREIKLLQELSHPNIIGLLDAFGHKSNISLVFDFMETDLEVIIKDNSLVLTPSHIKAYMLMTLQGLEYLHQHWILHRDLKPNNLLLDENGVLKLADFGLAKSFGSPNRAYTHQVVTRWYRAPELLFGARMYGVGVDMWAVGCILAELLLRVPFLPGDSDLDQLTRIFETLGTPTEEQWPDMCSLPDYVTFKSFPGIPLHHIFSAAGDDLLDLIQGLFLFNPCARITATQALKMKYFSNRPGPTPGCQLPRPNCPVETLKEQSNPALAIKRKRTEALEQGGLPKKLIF
Cyclin-dependent kinase 3, sequence (Q00526 whole entry): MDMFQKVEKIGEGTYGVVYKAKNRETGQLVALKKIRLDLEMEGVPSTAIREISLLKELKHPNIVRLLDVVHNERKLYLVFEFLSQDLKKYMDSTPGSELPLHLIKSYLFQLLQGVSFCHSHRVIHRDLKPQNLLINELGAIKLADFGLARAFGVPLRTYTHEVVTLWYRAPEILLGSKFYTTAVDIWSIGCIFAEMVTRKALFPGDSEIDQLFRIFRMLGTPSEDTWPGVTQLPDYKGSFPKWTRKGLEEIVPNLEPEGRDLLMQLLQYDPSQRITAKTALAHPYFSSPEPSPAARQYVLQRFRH
Glycogen synthase kinase-3 alpha, sequence (P49840 whole entry): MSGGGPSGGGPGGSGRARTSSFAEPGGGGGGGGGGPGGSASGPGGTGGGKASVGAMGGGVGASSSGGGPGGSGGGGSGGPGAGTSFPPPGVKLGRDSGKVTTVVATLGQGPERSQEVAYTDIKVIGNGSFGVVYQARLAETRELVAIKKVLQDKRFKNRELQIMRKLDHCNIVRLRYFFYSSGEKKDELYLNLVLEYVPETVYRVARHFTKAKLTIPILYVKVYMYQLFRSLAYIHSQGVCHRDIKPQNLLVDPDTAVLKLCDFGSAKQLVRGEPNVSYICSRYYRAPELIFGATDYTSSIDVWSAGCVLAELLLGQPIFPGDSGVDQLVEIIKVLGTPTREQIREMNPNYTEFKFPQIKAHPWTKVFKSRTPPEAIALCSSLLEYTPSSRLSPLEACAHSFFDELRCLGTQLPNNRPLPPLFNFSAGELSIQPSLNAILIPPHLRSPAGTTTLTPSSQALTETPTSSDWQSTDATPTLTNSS
Cyclin-dependent kinase 1, sequence (P06493 whole entry): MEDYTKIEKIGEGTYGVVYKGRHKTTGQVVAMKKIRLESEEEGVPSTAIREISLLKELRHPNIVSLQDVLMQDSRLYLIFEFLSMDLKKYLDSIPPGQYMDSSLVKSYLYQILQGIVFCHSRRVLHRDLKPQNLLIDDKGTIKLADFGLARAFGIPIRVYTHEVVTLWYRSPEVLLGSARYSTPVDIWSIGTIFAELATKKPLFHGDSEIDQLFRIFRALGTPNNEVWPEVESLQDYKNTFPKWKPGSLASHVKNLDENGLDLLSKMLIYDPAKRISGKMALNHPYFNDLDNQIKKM
Cyclin-dependent kinase 5, sequence (Q00535 whole entry): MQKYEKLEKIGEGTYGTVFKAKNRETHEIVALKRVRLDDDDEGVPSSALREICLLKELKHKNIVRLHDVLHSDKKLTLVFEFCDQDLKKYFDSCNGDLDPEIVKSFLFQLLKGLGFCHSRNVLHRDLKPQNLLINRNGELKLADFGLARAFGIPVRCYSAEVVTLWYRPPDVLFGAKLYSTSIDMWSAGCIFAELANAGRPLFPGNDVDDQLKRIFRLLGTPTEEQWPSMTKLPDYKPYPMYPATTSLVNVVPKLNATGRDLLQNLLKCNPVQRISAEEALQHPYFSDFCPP
Glycogen synthase kinase-3 beta, sequence (P49841 whole entry): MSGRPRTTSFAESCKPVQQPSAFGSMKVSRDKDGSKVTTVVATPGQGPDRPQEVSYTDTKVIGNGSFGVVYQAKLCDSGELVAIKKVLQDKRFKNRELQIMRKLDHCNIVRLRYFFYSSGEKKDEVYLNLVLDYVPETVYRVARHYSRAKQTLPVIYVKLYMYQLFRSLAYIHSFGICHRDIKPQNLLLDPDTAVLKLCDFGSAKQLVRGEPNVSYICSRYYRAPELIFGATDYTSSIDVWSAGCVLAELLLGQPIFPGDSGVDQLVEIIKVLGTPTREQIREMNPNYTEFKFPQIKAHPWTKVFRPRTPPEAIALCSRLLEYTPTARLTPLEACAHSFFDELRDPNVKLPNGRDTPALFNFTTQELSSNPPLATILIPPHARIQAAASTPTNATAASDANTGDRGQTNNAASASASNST

- pIC50 [1]: 5.73
- pIC50 [2]: 6.04
- pIC50 [3]: 5.84
- pIC50 [4]: 5.87
- pIC50 [5]: < 5.30
- pIC50 [6]: < 5.30
- pIC50 [7]: 8.00
- pIC50 [8]: 7.00
- pIC50 [9]: 6.07
- pIC50 [10]: < 5.30
SMILES: COc1cc(F)ccc1-c1ccnc(NC(=O)[C@@H]2CC[C@H](NC(C)=O)C2)c1
